Usually Ki stands for the equilibrium dissociation constant of an inhibitor or competing ligand from its target.

The test system of data set [1] is rd10^+/+ mice. The experiment in a line: Scotopic, photopic and low background photopic electroretinograms (ERGs) in rd10+/+ mice given drug in drinking water. Type of data set: in vivo. The following applies: for mean peak scotopic ERG b-wave amplitude compared with controls: vs controls. As for the experimental part:
Scotopic and photopic electroretinograms (ERGs) were recorded at P35. Scotopic, photopic and low background photopic ERGs were recorded at P50.

The test system of data set [2] is rd10^+/+ mice. The data set is described as follows: Cone density in PNA-stained retinal flat mounts of rd10+/+ mice at P50. In kind it is in vivo. To be noted: for cone cell density compared to NAC-treated mice: P50, four quadrants.
The conditions of data set [3]: humans; oral dose of 600 mg; cited from earlier work.
For data set [4] the following is noted: oral formulations; cited from earlier work.
For data set [5], the target named is glutamate cysteine ligase (GCL, EC 6.3.2.2). To be noted: nonallosteric competitive inhibition of GCL; cited from earlier work.
Where [6] appears, read: same oral dose or substantially lower dose than NAC, rd10+/+ mice.

`CC(=O)N[C@@H](CS)C(N)=O`: the “protecting retinal function (FIGS. 1A to 1E)” value with rd10^+/+ mice [1] (7 mg/ml NACA vs 7 mg/ml NAC) is reported as “better effects”. Also, the “protecting retinal function (FIGS. 3A to 3E)” value in the data set on rd10^+/+ mice [1] (7 mg/ml NACA vs 20 mg/ml NAC) was “better effects”. In addition, the “mean peak scotopic ERG b-wave amplitude compared with 20 mg/ml NAC” value in the data set on rd10^+/+ mice [1] (P35, 7 mg/ml NACA vs 20 mg/ml NAC) is “similar”. Further, the “mean peak photopic b-wave amplitude, higher than in NAC-treated mice” value with rd10^+/+ mice [1] (P35, 7 mg/ml NACA vs 20 mg/ml NAC, p=0.024) is on record as 41%. In addition, in the data set with rd10^+/+ mice [1] (P50, 7 mg/ml NACA vs 20 mg/ml NAC, at 10 of 11 stimulus intensities), the “mean scotopic b-wave amplitudes compared with NAC-treated mice” value was “significantly greater”. In addition, the “mean photopic ERG b-wave amplitude, higher than in NAC-treated mice” value in the data set on rd10^+/+ mice [1] (P50, 7 mg/ml NACA vs 20 mg/ml NAC, at all 3 stimulus intensities, p=0.001) was found to be 50%. The “mean peak scotopic ERG b-wave amplitude compared with controls” value in the data set on rd10^+/+ mice [1] (P50, 7 mg/ml NACA) is “sustained higher amplitudes”. Besides, in the data set on rd10^+/+ mice [1] (setting [6]), the “preservation of cone cell function compared with NAC” value was “significantly greater preservation”. The “protecting cone cell survival (FIGS. 2A to 2M)” value in the data set with rd10^+/+ mice [2] (7 mg/ml NACA vs 7 mg/ml NAC) is “better effects”. In the data set with rd10^+/+ mice [2] (7 mg/ml NACA vs 20 mg/ml NAC), the “protecting cone cell survival (FIGS. 4A to 4M)” value is given as “better effect” and the “cone cell density compared to NAC-treated mice” value is “significantly greater in 2 of 4 quadrants”. In addition, the “cone cell density compared to NAC-treated mice” value in the data set with rd10^+/+ mice [2] (7 mg/ml NACA vs 7 mg/ml NAC, p<0.0001 by ANOVA with Dunnett's correction) is reported as “significantly greater in 3 of 4 quadrants”. In the data set with rd10^+/+ mice [2] (setting [6]), the “preservation of cone survival compared with NAC” value is reported as “significantly greater preservation”.

In the case of `CC(=O)N[C@@H](CS)C(=O)O` [NAC, N-acetyl-L-cysteine], in the data set with rd10^+/+ mice [1] (P50, 20 mg/ml NAC), the “mean peak scotopic ERG b-wave amplitude compared with controls” value is listed as “sustained higher amplitudes”. In addition, the “time after administration at which no NAC is detectable” value in data set [3] was 10 to 12 h. Besides, the systemic bioavailability in data set [4] is less than 10%.

As for `N[C@@H](CCC(=O)N[C@@H](CS)C(=O)NCC(=O)O)C(=O)O` [GSH, c-L-glutamyl-L-cysteinyl-glycine], in data set [5], the Ki was 2.3 mM.

Source of the values: patent publication US20180296503A1 (priority 2014, published 2018).
